Experimental data reported in ChEMBL document CHEMBL3784981, “Anti-inflammatory, analgesic and antioxidant activities of novel kyotorphin-nitroxide hybrid molecules” (Bioorg Med Chem Lett, 2016).
Calls of active or inactive are those of the source.

What was measured:
HUVEC [1] = assay: Inhibition of simulated ischemia/reperfusion-induced human HUVEC cells death assessed as increase in tubular mitochondria levels at 30 ug/ml after 2 hrs by Hoechst 33342 dye based fluorescence assay (reference value: 11.3 +/- 2.1 %); type: functional; set-up: scale not given: the % may be the effect or the level left
Mus musculus [2] = assay: Analgesic activity in ICR mouse assessed as pain threshold at 0.1 umol/kg administered through oral gavage after 30 mins by tail flick method; type: functional
Mus musculus [3] = assay: Analgesic activity in ICR mouse assessed as pain threshold at 0.1 umol/kg administered through oral gavage after 60 mins by tail flick method; type: functional
Mus musculus [4] = assay: Analgesic activity in ICR mouse assessed as pain threshold at 0.1 umol/kg administered through oral gavage after 90 mins by tail flick method; type: functional
Mus musculus [5] = assay: Analgesic activity in ICR mouse assessed as pain threshold at 0.1 umol/kg administered through oral gavage after 120 mins by tail flick method; type: functional
Mus musculus [6] = assay: Analgesic activity in ICR mouse assessed as pain threshold at 0.1 umol/kg administered through oral gavage after 150 mins by tail flick method; type: functional
Mus musculus [7] = assay: Analgesic activity in ICR mouse assessed as pain threshold at 0.1 umol/kg administered through oral gavage after 180 mins by tail flick method; type: functional
Mus musculus [8] = assay: Analgesic activity in ICR mouse assessed as pain threshold at 0.15 umol/kg administered through oral gavage after 30 mins by tail flick method; type: functional
Mus musculus [9] = assay: Analgesic activity in ICR mouse assessed as pain threshold at 0.15 umol/kg administered through oral gavage after 60 mins by tail flick method; type: functional
Mus musculus [10] = assay: Analgesic activity in ICR mouse assessed as pain threshold at 0.15 umol/kg administered through oral gavage after 90 mins by tail flick method; type: functional
Mus musculus [11] = assay: Analgesic activity in ICR mouse assessed as pain threshold at 0.15 umol/kg administered through oral gavage after 120 mins by tail flick method; type: functional
Mus musculus [12] = assay: Analgesic activity in ICR mouse assessed as pain threshold at 0.15 umol/kg administered through oral gavage after 150 mins by tail flick method; type: functional
Mus musculus [13] = assay: Analgesic activity in ICR mouse assessed as pain threshold at 0.15 umol/kg administered through oral gavage after 180 mins by tail flick method; type: functional
Mus musculus [14] = assay: Analgesic activity in ICR mouse assessed as pain threshold at 0.05 umol/kg administered through oral gavage after 30 mins by tail flick method; type: functional
Mus musculus [15] = assay: Analgesic activity in ICR mouse assessed as pain threshold at 0.05 umol/kg administered through oral gavage after 60 mins by tail flick method; type: functional
Mus musculus [16] = assay: Analgesic activity in ICR mouse assessed as pain threshold at 0.05 umol/kg administered through oral gavage after 90 mins by tail flick method; type: functional
Mus musculus [17] = assay: Analgesic activity in ICR mouse assessed as pain threshold at 0.05 umol/kg administered through oral gavage after 120 mins by tail flick method; type: functional
Mus musculus [18] = assay: Analgesic activity in ICR mouse assessed as pain threshold at 0.055 umol/kg administered through oral gavage after 150 mins by tail flick method; type: functional
Mus musculus [19] = assay: Analgesic activity in ICR mouse assessed as pain threshold at 0.055 umol/kg administered through oral gavage after 180 mins by tail flick method; type: functional
Mus musculus [20] = assay: Antiinflammatory activity in ICR mouse assessed as inhibition of xylene-induced ear edema at 0.1 umol/kg, po administered 30 mins prior to xylene challenge measured after 2hrs; type: functional; settings: for inhibition in vivo at 0.1 µmol/kg: Mus musculus, ICR, Ear, po
Mus musculus [21] = assay: Antiinflammatory activity in ICR mouse assessed as inhibition of xylene-induced ear edema at 0.15 umol/kg, po administered 30 mins prior to xylene challenge measured after 2hrs; type: functional
Mus musculus [22] = assay: Antiinflammatory activity in ICR mouse assessed as inhibition of xylene-induced ear edema at 0.05 umol/kg, po administered 30 mins prior to xylene challenge measured after 2hrs; type: functional
[23] = Antioxidant activity in sodium nitroprusside-stimulated rat PC12 cells assessed as NO radical scavenging activity measured as cell survival preincubated with compound for 1 hr followed by addition of sodium nitroprusside for 2 measured after 14 hrs by MTT assay; type: functional, cell-based; settings: pc-12
[24] = Antioxidant activity in rat PC12 cells assessed as H2O2 radical scavenging activity measured as cell survival preincubated with compound for 1 hr measured after 14 hrs by MTT assay; type: functional, cell-based; settings: pc-12
[25] = Antioxidant activity in H2O2/Fe(II)-stimulated rat PC12 cells assessed as OH radical scavenging activity measured by cell survival preincubated with compound for 1 hr measured after 14 hrs by MTT assay; type: functional, cell-based; settings: pc-12
HUVEC [26] = assay: Inhibition of simulated ischemia/reperfusion-induced ROS production in human HUVEC cells at 30 ug/ml after 2 hrs by Hoechst 33342 dye based fluorescence assay; type: functional, cell-based
HUVEC [27] = assay: Inhibition of simulated ischemia/reperfusion-induced cytochrome C release in human HUVEC cells at 30 ug/ml after 2 hrs by fluorescence assay (reference value: 75.3 +/- 5.2 %); type: functional; set-up: scale not given: the % may be the effect or the level left
HUVEC [28] = assay: Inhibition of simulated ischemia/reperfusion-induced human HUVEC cells death assessed as decrease in fragmented mitochondria at 30 ug/ml after 2 hrs by Hoechst 33342 dye based fluorescence assay; type: functional, cell-based
Mus musculus [29] = assay: Analgesic activity in ICR mouse assessed as pain threshold at 1 umol/kg administered through oral gavage after 30 mins by tail flick method; type: functional
Mus musculus [30] = assay: Analgesic activity in ICR mouse assessed as pain threshold at 1 umol/kg administered through oral gavage after 60 mins by tail flick method; type: functional
Mus musculus [31] = assay: Analgesic activity in ICR mouse assessed as pain threshold at 1 umol/kg administered through oral gavage after 90 mins by tail flick method; type: functional
Mus musculus [32] = assay: Analgesic activity in ICR mouse assessed as pain threshold at 1 umol/kg administered through oral gavage after 120 mins by tail flick method; type: functional
Mus musculus [33] = assay: Analgesic activity in ICR mouse assessed as pain threshold at 1 umol/kg administered through oral gavage after 150 mins by tail flick method; type: functional
Mus musculus [34] = assay: Analgesic activity in ICR mouse assessed as pain threshold at 1 umol/kg administered through oral gavage after 180 mins by tail flick method; type: functional
Mus musculus [35] = assay: Analgesic activity in ICR mouse assessed as pain threshold at 165 umol/kg administered through oral gavage after 30 mins by tail flick method; type: functional
Mus musculus [36] = assay: Analgesic activity in ICR mouse assessed as pain threshold at 165 umol/kg administered through oral gavage after 60 mins by tail flick method; type: functional
Mus musculus [37] = assay: Analgesic activity in ICR mouse assessed as pain threshold at 165 umol/kg administered through oral gavage after 90 mins by tail flick method; type: functional
Mus musculus [38] = assay: Analgesic activity in ICR mouse assessed as pain threshold at 165 umol/kg administered through oral gavage after 120 mins by tail flick method; type: functional
Mus musculus [39] = assay: Analgesic activity in ICR mouse assessed as pain threshold at 165 umol/kg administered through oral gavage after 150 mins by tail flick method; type: functional
Mus musculus [40] = assay: Analgesic activity in ICR mouse assessed as pain threshold at 165 umol/kg administered through oral gavage after 180 mins by tail flick method; type: functional

SMILES: CC1(C)N([O])C(c2ccc(OCC(=O)NCCNC(=O)[C@H](Cc3ccc(O)cc3)NC(=O)[C@@H](N)CCCNC(=N)N)cc2)=[N+]([O-])C1(C)C
- Activity (HUVEC [1]): 41.5%
- Activity (Mus musculus [2]): 15.28%
- Activity (Mus musculus [3]): 25.75%
- Activity (Mus musculus [4]): 35.74%
- Activity (Mus musculus [5]): 48.17%
- Activity (Mus musculus [6]): 37.11%
- Activity (Mus musculus [7]): 23.15%
- Activity (Mus musculus [8]): 17.89%
- Activity (Mus musculus [9]): 28.65%
- Activity (Mus musculus [10]): 32.33%
- Activity (Mus musculus [11]): 50.61%
- Activity (Mus musculus [12]): 39.13%
- Activity (Mus musculus [13]): 27.67%
- Activity (Mus musculus [14]): 7.48%
- Activity (Mus musculus [15]): 10.35%
- Activity (Mus musculus [16]): 13.57%
- Activity (Mus musculus [17]): 15.78%
- Activity (Mus musculus [18]): 11.91%
- Activity (Mus musculus [19]): 9.14%
- inhibition (INH) (Mus musculus [20]): 50.68%
- inhibition (INH) (Mus musculus [21]): 58.15%
- inhibition (INH) (Mus musculus [22]): 21.21%
- EC50 [23]: 19.5 µM
- EC50 [24]: 32.5 µM
- EC50 [25]: 33.9 µM
- Activity (HUVEC [26]): Active
- Activity (HUVEC [27]): 47.8%
- inhibition (HUVEC [28]): Active

SMILES: CC1(C)N([O])C(c2ccc(OCC(=O)O)cc2)=[N+]([O-])C1(C)C
- inhibition in vivo at 0.1 µmol/kg (Mus musculus [20]): 29.7%
- Activity (Mus musculus [29]): 9.1%
- Activity (Mus musculus [30]): 12.31%
- Activity (Mus musculus [31]): 20.97%
- Activity (Mus musculus [32]): 23.18%
- Activity (Mus musculus [33]): 21.11%
- Activity (Mus musculus [34]): 13.05%

SMILES: NC(N)=NCCC[C@H](NC(=O)[C@@H](N)Cc1ccc(O)cc1)C(=O)O [KYOTORPHIN]
- inhibition in vivo at 0.1 µmol/kg (Mus musculus [20]): 25.9%
- Activity (Mus musculus [29]): 16.08%
- Activity (Mus musculus [30]): 22.78%
- Activity (Mus musculus [31]): 25.35%
- Activity (Mus musculus [32]): 12.32%
- Activity (Mus musculus [33]): 12.11%
- Activity (Mus musculus [34]): 10.55%

SMILES: CC(=O)Oc1ccccc1C(=O)O [ASPIRIN]
- inhibition in vivo at 0.1 µmol/kg (Mus musculus [20]): 49.9%
- Activity (Mus musculus [35]): 33.21%
- Activity (Mus musculus [36]): 66.32%
- Activity (Mus musculus [37]): 53.2%
- Activity (Mus musculus [38]): 25.21%
- Activity (Mus musculus [39]): 15.84%
- Activity (Mus musculus [40]): 20.56%

SMILES: CC1(C)N([O])C(c2ccc(OCC(=O)N[C@@H](Cc3ccc(O)cc3)C(=O)N[C@@H](CCC(=O)O)C(=O)O)cc2)=[N+]([O-])C1(C)C
- Activity (Mus musculus [2]): 11.1%
- Activity (Mus musculus [3]): 13.44%
- Activity (Mus musculus [4]): 26.41%
- Activity (Mus musculus [5]): 13.58%
- Activity (Mus musculus [6]): 15.11%
- Activity (Mus musculus [7]): 14.22%
- inhibition (INH) (Mus musculus [20]): 32.22%
- EC50 [23]: 8.1 µM
- EC50 [24]: 31.3 µM
- EC50 [25]: 22.7 µM

SMILES: CC1(C)N([O])C(c2ccc(OCC(=O)NCCCNC(=O)[C@H](Cc3ccc(O)cc3)NC(=O)[C@@H](N)CCCNC(=N)N)cc2)=[N+]([O-])C1(C)C
- Activity (HUVEC [1]): 55.7%
- Activity (Mus musculus [2]): 16.3%
- Activity (Mus musculus [3]): 29.36%
- Activity (Mus musculus [4]): 44.76%
- Activity (Mus musculus [5]): 60.32%
- Activity (Mus musculus [6]): 51.33%
- Activity (Mus musculus [7]): 22.01%
- Activity (Mus musculus [8]): 20.17%
- Activity (Mus musculus [9]): 33.47%
- Activity (Mus musculus [10]): 50.35%
- Activity (Mus musculus [11]): 68.42%
- Activity (Mus musculus [12]): 52.45%
- Activity (Mus musculus [13]): 30.34%
- Activity (Mus musculus [14]): 8.16%
- Activity (Mus musculus [15]): 12.31%
- Activity (Mus musculus [16]): 18.37%
- Activity (Mus musculus [17]): 25.36%
- Activity (Mus musculus [18]): 19.35%
- Activity (Mus musculus [19]): 16.28%
- inhibition (INH) (Mus musculus [20]): 73.47%
- inhibition (INH) (Mus musculus [21]): 78.58%
- inhibition (INH) (Mus musculus [22]): 37.33%
- EC50 [23]: 8.1 µM
- EC50 [24]: 31.3 µM
- EC50 [25]: 22.7 µM
- Activity (HUVEC [26]): Active
- Activity (HUVEC [27]): 27.8%
- inhibition (HUVEC [28]): Active
